Reference: the kinase profiling compilation of Christmann-Franck et al. (2016)

What was measured:
Test in all cases: SelectScreen, TR FRET
Details in all cases: compound 5.0 µM
FES (human) = FES (human) (UniProt P07332)
GRK5 (human) = GRK5 (human) (UniProt P34947)
CSNK1A1 (human) = CSNK1A1 (human) (UniProt P48729)
FRK (human) = FRK (human) (UniProt P42685)
[1] = system: MET (human), P08581 [M1250T]
PRKCE (human) = PRKCE (human) (UniProt Q02156)
CHEK1 (human) = CHEK1 (human) (UniProt O14757)
ROCK1 (human) = ROCK1 (human) (UniProt Q13464)
PDGFRA (human) = PDGFRA (human) (UniProt P16234)
Sequence of PDGFRA (human) (P16234 whole entry, looked up): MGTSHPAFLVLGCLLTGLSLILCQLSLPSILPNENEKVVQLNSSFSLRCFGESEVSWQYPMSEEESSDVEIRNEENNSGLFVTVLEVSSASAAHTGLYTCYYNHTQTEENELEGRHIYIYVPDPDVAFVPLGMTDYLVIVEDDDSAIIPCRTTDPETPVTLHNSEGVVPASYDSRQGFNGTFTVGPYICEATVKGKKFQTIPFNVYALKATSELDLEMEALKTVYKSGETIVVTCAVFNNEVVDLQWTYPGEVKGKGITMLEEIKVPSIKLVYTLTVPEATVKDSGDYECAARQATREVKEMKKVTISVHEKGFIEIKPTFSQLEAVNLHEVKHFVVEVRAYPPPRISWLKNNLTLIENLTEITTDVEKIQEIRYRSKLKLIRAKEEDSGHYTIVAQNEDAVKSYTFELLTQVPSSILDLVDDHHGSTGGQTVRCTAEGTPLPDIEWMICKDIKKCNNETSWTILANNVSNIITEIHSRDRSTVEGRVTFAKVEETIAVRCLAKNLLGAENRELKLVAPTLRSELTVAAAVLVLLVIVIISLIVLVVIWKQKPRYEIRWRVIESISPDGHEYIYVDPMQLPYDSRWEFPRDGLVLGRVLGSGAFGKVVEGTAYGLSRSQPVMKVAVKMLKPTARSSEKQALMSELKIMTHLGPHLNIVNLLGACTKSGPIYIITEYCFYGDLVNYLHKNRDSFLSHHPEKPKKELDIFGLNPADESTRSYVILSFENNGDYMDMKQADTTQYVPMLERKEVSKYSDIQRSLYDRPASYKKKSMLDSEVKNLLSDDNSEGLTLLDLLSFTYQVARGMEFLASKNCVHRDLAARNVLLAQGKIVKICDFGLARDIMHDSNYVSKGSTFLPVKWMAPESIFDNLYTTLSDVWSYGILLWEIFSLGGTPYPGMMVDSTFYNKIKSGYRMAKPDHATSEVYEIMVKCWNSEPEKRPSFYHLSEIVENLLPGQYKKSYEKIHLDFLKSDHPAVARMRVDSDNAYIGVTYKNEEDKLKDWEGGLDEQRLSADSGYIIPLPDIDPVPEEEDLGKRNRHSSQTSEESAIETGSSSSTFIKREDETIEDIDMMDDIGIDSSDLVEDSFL

PLK1 (human) = PLK1 (human) (UniProt P53350)
DYRK3 (human) = DYRK3 (human) (UniProt O43781)
CDK5 CDK5R1 p35 (human) = CDK5 CDK5R1 p35 (human) (UniProt Q00535+Q15078)
[2] = system: PDGFRA (human), P16234 [T674I]
Sequence of PDGFRA (human), P16234 [T674I] (P16234 whole entry T674I, looked up): as the sequence (P16234 whole entry, looked up) above, with T674I counted along it

PDPK1 (human) = PDPK1 (human) (UniProt O15530)
CAMK1D (human) = CAMK1D (human) (UniProt Q8IU85)
FGFR4 (human) = FGFR4 (human) (UniProt P22455)
[3] = system: ABL1 (human), P00519 [T315I]
CSNK1E (human) = CSNK1E (human) (UniProt P49674)
ERBB2 (human) = ERBB2 (human) (UniProt P04626)
FER (human) = FER (human) (UniProt P16591)
Sequence of FER (human) (P16591 whole entry, looked up): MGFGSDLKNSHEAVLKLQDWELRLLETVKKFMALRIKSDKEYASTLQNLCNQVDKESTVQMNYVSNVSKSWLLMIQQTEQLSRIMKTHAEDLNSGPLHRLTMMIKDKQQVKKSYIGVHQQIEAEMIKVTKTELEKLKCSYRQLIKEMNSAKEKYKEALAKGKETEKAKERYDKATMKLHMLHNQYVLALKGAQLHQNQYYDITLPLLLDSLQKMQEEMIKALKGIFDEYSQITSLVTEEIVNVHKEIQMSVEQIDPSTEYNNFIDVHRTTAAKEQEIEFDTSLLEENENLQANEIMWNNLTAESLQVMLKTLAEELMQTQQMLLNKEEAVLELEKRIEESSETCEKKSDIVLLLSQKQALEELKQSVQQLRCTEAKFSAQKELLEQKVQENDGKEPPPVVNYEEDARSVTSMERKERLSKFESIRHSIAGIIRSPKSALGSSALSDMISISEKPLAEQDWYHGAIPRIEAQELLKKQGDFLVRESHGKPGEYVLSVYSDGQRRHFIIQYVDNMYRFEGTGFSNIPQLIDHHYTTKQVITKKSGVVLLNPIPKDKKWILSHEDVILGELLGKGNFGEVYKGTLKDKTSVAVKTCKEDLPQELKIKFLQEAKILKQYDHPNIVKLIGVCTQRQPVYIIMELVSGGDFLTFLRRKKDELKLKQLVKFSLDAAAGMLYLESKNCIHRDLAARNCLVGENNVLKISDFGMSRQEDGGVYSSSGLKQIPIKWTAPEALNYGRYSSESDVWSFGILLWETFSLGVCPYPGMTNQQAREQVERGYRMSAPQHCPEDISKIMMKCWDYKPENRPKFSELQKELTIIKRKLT

ITK (human) = ITK (human) (UniProt Q08881)
STK4 (human) = STK4 (human) (UniProt Q13043)
Sequence of STK4 (human) (Q13043 whole entry, looked up): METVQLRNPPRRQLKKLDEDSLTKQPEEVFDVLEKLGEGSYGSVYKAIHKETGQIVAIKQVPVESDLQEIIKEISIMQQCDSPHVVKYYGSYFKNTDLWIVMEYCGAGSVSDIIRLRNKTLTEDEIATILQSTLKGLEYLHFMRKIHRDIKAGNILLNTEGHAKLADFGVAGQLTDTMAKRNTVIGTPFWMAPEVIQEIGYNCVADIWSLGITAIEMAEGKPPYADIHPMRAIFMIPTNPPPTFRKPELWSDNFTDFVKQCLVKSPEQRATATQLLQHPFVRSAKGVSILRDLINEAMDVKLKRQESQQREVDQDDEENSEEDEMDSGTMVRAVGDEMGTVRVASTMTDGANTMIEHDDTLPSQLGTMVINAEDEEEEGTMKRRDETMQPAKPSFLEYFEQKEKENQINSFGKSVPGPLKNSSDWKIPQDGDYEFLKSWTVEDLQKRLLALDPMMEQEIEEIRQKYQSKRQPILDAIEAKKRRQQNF

FGR (human) = FGR (human) (UniProt P09769)
Sequence of FGR (human) (P09769 whole entry, looked up): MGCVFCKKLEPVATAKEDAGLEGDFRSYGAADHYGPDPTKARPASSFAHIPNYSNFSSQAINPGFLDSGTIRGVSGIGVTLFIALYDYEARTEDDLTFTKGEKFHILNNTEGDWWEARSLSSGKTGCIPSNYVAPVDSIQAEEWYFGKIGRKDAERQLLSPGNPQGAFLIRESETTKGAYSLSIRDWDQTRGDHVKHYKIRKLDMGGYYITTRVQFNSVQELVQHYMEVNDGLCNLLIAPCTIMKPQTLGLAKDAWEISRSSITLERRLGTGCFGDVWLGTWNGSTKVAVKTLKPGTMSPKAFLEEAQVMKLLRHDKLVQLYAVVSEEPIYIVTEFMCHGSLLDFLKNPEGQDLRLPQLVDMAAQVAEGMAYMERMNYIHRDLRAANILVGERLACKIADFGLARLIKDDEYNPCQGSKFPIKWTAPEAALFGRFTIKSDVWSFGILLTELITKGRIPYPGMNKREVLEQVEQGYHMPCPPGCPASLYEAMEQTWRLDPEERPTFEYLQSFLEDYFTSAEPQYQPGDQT

STK24 (human) = STK24 (human) (UniProt Q9Y6E0)
Sequence of STK24 (human) (Q9Y6E0 whole entry, looked up): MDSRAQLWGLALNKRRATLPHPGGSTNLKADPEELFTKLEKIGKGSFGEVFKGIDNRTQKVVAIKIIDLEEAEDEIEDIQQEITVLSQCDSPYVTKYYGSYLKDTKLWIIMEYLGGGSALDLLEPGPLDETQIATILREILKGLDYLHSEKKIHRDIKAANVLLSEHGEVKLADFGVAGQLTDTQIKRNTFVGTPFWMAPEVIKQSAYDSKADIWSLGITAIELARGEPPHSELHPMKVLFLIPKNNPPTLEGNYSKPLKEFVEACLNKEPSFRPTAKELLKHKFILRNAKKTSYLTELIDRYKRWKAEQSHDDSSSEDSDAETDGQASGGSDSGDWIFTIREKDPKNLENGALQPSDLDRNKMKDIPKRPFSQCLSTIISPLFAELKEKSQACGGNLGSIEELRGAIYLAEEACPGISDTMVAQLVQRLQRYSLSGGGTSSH

GRK4 (human) = GRK4 (human) (UniProt P32298)
MAP2K6 (human) = MAP2K6 (human) (UniProt P52564)
EPHB1 (human) = EPHB1 (human) (UniProt P54762)
ABL2 (human) = ABL2 (human) (UniProt P42684)
MAP3K9 (human) = MAP3K9 (human) (UniProt P80192)
SYK (human) = SYK (human) (UniProt P43405)
PRKD3 (human) = PRKD3 (human) (UniProt O94806)
MAPKAPK5 (human) = MAPKAPK5 (human) (UniProt Q8IW41)
CDK2 CCNA2 (human) = CDK2 CCNA2 (human) (UniProt P24941+P20248)
Sequence of CDK2 CCNA2 (human) (P20248 whole entry, looked up, other chains not shown): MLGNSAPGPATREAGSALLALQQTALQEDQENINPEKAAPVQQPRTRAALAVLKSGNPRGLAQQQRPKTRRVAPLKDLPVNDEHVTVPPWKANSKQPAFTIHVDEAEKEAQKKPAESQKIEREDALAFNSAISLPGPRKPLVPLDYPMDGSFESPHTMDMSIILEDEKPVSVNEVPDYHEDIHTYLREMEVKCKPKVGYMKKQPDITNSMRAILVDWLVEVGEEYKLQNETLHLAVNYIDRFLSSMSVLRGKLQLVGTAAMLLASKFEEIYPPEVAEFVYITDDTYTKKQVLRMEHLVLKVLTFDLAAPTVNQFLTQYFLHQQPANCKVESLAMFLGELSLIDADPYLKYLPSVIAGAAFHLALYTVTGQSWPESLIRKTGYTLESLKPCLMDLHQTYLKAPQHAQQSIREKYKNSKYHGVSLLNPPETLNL

PIM2 (human) = PIM2 (human) (UniProt Q9P1W9)
TEK (human) = TEK (human) (UniProt Q02763)
DYRK4 (human) = DYRK4 (human) (UniProt Q9NR20)
PRKG2 (human) = PRKG2 (human) (UniProt Q13237)
PHKG2 (human) = PHKG2 (human) (UniProt P15735)
Sequence of PHKG2 (human) (P15735 whole entry, looked up): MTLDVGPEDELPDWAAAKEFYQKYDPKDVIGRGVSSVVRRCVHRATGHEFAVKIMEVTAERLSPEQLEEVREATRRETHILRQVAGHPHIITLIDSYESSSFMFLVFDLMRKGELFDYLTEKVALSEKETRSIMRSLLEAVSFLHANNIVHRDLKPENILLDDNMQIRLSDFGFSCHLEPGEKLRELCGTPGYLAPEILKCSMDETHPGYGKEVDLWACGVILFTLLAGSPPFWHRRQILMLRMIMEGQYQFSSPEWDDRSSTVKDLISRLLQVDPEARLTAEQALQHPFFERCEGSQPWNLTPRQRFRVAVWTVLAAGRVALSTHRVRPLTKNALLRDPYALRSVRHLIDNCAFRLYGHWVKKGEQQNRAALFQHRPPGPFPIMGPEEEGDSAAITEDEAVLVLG

SGK3 (human) = SGK3 (human) (UniProt Q96BR1)
CSNK2A1 (human) = CSNK2A1 (human) (UniProt P68400)
Sequence of CSNK2A1 (human) (P68400 whole entry, looked up): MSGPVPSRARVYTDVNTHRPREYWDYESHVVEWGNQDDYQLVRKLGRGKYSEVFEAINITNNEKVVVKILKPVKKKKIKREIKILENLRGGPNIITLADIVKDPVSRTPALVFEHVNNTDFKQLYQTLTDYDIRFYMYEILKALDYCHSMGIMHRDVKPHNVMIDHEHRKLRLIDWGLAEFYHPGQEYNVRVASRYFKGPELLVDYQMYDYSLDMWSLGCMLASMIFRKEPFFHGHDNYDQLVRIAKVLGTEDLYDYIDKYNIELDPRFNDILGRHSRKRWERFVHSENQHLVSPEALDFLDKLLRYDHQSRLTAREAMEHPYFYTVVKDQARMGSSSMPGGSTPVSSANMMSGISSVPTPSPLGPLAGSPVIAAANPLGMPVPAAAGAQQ

Sequence of CSNK1A1 (human) (P48729 whole entry, looked up): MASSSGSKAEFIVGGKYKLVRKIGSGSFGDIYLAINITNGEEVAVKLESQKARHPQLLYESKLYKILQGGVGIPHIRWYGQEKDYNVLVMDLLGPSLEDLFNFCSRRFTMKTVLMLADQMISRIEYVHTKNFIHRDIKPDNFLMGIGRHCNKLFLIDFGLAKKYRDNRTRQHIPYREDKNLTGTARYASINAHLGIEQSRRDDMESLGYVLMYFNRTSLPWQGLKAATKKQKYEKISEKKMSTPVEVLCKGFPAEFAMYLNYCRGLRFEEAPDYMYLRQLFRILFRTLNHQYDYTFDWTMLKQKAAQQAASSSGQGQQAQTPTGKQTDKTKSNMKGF

SMILES: Nc1cc(C(F)(F)F)c(-c2cc(N3CCOCC3)nc(N3CCOCC3)n2)cn1
- inhibition (FES (human)): 0%
- inhibition (GRK5 (human)): 1%
- inhibition (CSNK1A1 (human)): -1%
- inhibition (FRK (human)): 2%
- inhibition [1]: 1%
- inhibition (PRKCE (human)): 2%
- inhibition (CHEK1 (human)): 3%
- inhibition (ROCK1 (human)): -2%
- inhibition (PDGFRA (human)): 5%
- inhibition (PLK1 (human)): 1%
- inhibition (DYRK3 (human)): 11%
- inhibition (CDK5 CDK5R1 p35 (human)): -1%
- inhibition [2]: 11%
- inhibition (PDPK1 (human)): 4%
- inhibition (CAMK1D (human)): 12%
- inhibition (FGFR4 (human)): 5%
- inhibition [3]: 3%
- inhibition (CSNK1E (human)): 11%
- inhibition (ERBB2 (human)): -4%
- inhibition (FER (human)): 1%
- inhibition (ITK (human)): 3%
- inhibition (STK4 (human)): 14%
- inhibition (FGR (human)): 15%
- inhibition (STK24 (human)): 7%
- inhibition (GRK4 (human)): 2%
- inhibition (MAP2K6 (human)): 6%
- inhibition (EPHB1 (human)): 3%
- inhibition (ABL2 (human)): -3%
- inhibition (MAP3K9 (human)): 2%
- inhibition (SYK (human)): 1%
- inhibition (PRKD3 (human)): 8%
- inhibition (MAPKAPK5 (human)): -1%
- inhibition (CDK2 CCNA2 (human)): 2%
- inhibition (PIM2 (human)): 3%
- inhibition (TEK (human)): 5%
- inhibition (DYRK4 (human)): 3%
- inhibition (PRKG2 (human)): 10%
- inhibition (PHKG2 (human)): 3%
- inhibition (SGK3 (human)): 20%
- inhibition (CSNK2A1 (human)): 1%
